According to patent US10512676B2, “Formulations comprising recombinant acid alpha-glucosidase” (Amicus Therapeutics, Inc., priority 2016, dated 2019):

What was measured:
CIMPR = CIMPR (Homo sapiens, UniProt P11717); assay: CIMPR affinity chromatography (CIMPR column, free M6P gradient); format: binding; conditions: fraction of total enzyme by GAA activity; for rhGAA that did not bind to the CIMPR: eluted prior to addition of M6P
Description: To evaluate the ability of the rhGAA in Myozyme® and Lumizyme®, the only currently approved treatments for Pompe disease, these rhGAA preparations were injected onto a CIMPR column (which binds rhGAA having M6P groups) and subsequently eluted with a free […] gradient. Fractions were collected in 96-well plate and GAA activity assayed by 4MU-α-glucose substrate. The relative amounts of bound and unbound rhGAA were determined based on GAA activity and reported as the fraction of total enzyme.

[1] = system: normal and Pompe fibroblast cell lines; assay: Cellular uptake of rhGAA in normal and Pompe fibroblast cell lines; format: cell-based
Description: The relative cellular uptake of ATB200 and Lumizyme® rhGAA were compared using normal and Pompe fibroblast cell lines. […] After 16-hr incubation, external rhGAA was inactivated with TRIS base and cells were washed 3-times with PBS prior to harvest. Internalized GAA measured by 4MU-α-Glucoside hydrolysis and was graphed relative to total cellular protein and the results appear in FIGS. 11A-B.

Gaa KO mice = assay: Muscle function in Gaa-knockout mice, 12 biweekly administrations (grip strength, wire hang); format: in vivo, mouse; conditions: 12 biweekly administrations, ERT 20 mg/kg (miglustat 10 mg/kg)
From the text: In FIG. 18A, * indicates statistically significant compared to Lumizyme® alone (p<0.05, 2-sided t-test). In FIGS. 19A-19G, * indicates statistically significant compared to Lumizyme® alone (p<0.05, multiple comparison using Dunnett's method under one-way ANOVA analysis).

[2] = Apparent plasma half-life in vivo
[3] = Plasma miglustat pharmacokinetics, phase 1/2 study in adults with Pompe disease; format: in vivo, human; conditions: for CL/F: arithmetic mean (CV %)
Description: Mean total GAA protein and miglustat PK results from the first 8 Cohort 1 patients through Visit 9 and the first 2 Cohort 3 patients were assessed.

CIMPR, sequence (P11717 41-2491, species assumed): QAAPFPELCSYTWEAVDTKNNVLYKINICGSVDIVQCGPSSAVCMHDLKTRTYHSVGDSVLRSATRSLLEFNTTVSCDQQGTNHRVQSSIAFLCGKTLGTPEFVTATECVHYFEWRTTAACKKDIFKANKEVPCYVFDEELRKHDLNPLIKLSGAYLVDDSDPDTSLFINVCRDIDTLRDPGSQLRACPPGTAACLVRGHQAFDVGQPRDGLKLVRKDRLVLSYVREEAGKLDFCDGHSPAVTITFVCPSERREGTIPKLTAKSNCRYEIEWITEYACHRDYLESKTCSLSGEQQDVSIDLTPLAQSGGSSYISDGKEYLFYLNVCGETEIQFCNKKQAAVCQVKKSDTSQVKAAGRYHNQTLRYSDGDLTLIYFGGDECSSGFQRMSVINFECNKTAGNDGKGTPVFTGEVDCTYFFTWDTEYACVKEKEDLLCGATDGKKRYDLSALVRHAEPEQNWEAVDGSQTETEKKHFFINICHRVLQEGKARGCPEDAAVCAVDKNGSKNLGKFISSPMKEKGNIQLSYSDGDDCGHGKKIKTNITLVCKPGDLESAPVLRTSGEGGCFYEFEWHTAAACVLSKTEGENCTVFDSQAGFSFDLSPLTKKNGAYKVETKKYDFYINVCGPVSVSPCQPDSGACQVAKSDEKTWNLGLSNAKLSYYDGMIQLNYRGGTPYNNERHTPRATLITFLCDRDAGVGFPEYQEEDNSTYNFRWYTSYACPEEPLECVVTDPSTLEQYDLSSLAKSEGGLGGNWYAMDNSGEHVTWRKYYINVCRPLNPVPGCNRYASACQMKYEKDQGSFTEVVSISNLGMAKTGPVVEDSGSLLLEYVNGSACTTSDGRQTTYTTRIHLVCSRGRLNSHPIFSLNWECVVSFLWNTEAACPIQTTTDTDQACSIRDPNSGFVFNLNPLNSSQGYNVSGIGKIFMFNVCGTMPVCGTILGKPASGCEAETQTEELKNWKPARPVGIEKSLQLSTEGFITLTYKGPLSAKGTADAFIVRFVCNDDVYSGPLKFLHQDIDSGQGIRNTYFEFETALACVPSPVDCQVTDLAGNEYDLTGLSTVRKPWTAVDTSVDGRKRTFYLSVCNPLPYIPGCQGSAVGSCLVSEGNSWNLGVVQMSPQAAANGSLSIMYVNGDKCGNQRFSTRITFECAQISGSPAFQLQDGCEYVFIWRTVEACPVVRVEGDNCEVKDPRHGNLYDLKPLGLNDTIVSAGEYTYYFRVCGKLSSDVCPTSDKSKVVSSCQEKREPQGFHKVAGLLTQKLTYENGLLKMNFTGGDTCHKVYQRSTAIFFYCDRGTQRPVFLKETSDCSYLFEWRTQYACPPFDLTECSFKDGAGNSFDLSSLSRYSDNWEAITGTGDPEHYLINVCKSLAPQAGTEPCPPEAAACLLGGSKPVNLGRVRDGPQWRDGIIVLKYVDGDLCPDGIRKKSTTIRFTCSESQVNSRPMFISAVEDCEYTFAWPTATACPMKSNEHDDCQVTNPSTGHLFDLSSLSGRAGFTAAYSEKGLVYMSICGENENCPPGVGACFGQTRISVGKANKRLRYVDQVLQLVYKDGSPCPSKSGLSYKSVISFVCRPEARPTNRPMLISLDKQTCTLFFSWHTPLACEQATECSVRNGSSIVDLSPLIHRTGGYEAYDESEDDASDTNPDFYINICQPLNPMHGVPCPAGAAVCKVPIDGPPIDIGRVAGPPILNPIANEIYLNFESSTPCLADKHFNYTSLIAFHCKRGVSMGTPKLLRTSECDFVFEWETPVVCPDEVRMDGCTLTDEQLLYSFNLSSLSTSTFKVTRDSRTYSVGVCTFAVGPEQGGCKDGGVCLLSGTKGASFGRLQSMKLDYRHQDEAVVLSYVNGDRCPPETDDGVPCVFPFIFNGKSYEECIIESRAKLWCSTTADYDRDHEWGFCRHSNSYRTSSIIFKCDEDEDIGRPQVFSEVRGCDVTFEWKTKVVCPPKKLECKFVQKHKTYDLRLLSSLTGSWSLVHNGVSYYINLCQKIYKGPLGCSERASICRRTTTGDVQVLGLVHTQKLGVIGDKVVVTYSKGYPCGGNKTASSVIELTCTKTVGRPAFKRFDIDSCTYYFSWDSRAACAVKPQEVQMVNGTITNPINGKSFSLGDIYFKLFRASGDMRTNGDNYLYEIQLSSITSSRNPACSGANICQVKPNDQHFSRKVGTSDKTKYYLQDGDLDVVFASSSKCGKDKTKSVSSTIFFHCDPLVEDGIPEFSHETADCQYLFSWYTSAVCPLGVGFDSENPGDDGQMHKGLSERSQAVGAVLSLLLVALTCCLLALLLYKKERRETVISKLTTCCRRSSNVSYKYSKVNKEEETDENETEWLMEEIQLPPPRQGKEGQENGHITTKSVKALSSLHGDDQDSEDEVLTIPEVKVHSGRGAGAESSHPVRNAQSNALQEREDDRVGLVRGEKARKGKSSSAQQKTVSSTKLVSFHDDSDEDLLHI

Myozyme®: conventional rhGAA product containing alglucosidase alfa, Genzyme
rhGAA that contained M6P / bound CIMPR (eluted with M6P) (CIMPR): 27%
rhGAA that did not bind to the CIMPR (CIMPR): 73%

Lumizyme®: conventional rhGAA product containing alglucosidase alfa, Genzyme
concentration that saturates cellular receptors ([1]; 16-hr incubation): about 250 nM
uptake efficiency constant (Kuptake) ([1]; extrapolated, FIG. 11C): 56 nM
rhGAA that contained M6P / bound CIMPR (eluted with M6P) (CIMPR): 22%
rhGAA that did not bind to the CIMPR (CIMPR): 78%
functional muscle strength (grip strength and wire hang tests) (Gaa KO mice): observed to decline under identical conditions throughout most of the study

[199-arginine,223-histidine]prepro-α-glucosidase (human) [alglucosidase alfa, reference compound]
apparent plasma half-life (t1/2) [2]: ~1 h

CCCCN1C[C@H](O)[C@@H](O)[C@H](O)[C@H]1CO [Miglustat, miglustat]
plasma miglustat kinetics ([3]; 130 mg and 260 mg oral): dose-proportional kinetics
CL/F ([3]; High MD): 10.3 (26.4) L/h
CL/F ([3]; High SD): 10.6 (33) L/h
CL/F ([3]; Low MD): 10.2 (23.9) L/h
CL/F ([3]; Low SD): 10.6 (23) L/h
